The record followed here is ChEMBL document CHEMBL1126306, “Inactivation of calpain by peptidyl fluoromethyl ketones” (J Med Chem, 1992).

Molecules are shown by their SMILES. Where a SMILES comes first, the peptide text is derived from it.

The series can be described thus: The rate of inactivation expressed as second-order rate constant is independent of concentration. The note with it: for kinact/KI: read-out: k2.

With `C[C@H](NC(=O)[C@H](Cc1ccc(O)cc1)NC(=O)OCc1ccccc1)C(=O)CF`, the kinact/KI stood at 7.4e+06 M⁻¹ s⁻¹. Take `CC(C)C[C@H](NC(=O)OCc1ccccc1)C(=O)N[C@@H](Cc1ccc(O)cc1)C(=O)CF` (HELM PEPTIDE1{[O=C(OCc1ccccc1)[*:2]].L.Y.[FC[*:1]]}$$$$V2.0): the k2 was found to be 12000 M⁻¹ s⁻¹ and the kinact/KI worked out at 17000 M⁻¹ s⁻¹.
